The nature of series [1]: Antiproliferative activity against human NL20 cells after 24 hrs by MTT assay. It counts as cell-based. The conditions noted are these: NL20, 24 h.
Series [2] is described as follows: Antiproliferative activity against human H1299 cells after 24 hrs by MTT assay. The conditions noted are these: NCI-H1299, 24 h. It counts as functional, cell-based.
A short description of series [3]: Antiproliferative activity against human H184B5F5/M10 cells after 24 hrs by MTT assay. The following applies: H184B5F5/M10, 24 h. It counts as functional, cell-based.
The test system of a further series is MCF7. The series is described as follows: Antiproliferative activity against human MCF7 cells after 24 hrs by MTT assay. It counts as functional, cell-based. The conditions noted are these: MCF7, 24 h.
Series [4] has as its system NCI-H1299. The series is described as follows: Induction of apoptosis in human H1299 cells assessed as change in morphology at 1.5 uM after 24 hrs using Acridine orange/ethidium bromide staining by fluorescence microscopy. It counts as functional, cell-based.
A short description of series [5]: Cell cycle arrest in human NL20 cells assessed as accumulation at Sub-G1 phase at 1.5 uM after 12 hrs by flow cytometry (reference value: 4.6 %). The following applies: nl20, 12 h. It counts as ADME, cell-based.
Series [6] can be described thus: Cell cycle arrest in human NL20 cells assessed as accumulation at Sub-G1 phase at 1.5 uM after 24 hrs by flow cytometry (reference value: 4.6 %). It counts as ADME, cell-based. The following applies: nl20, 24 h.
Series [7] is described as follows: Cell cycle arrest in human H1299 cells assessed as accumulated at G2/M phase at 1.5 uM after 24 hrs by flow cytometry (reference value: 5.4%). It counts as functional, cell-based. The following applies: NCI-H1299.
Series [8] is described as follows: Cell cycle arrest in human NL20 cells assessed as accumulation at G2/M phase at 1.5 uM after 12 to 24 hrs by flow cytometry. It counts as ADME, cell-based. The conditions noted are these: nl20, 1.5 µM.
Series [9] is described as follows: Cell cycle arrest in human H1299 cells assessed as accumulation at Sub-G1 phase at 1.5 uM after 24 hrs by flow cytometry (reference value: 5.3%). It counts as functional, cell-based. The conditions noted are these: NCI-H1299.
Series [10] in a line: Cell cycle arrest in human H1299 cells assessed as accumulated at G2/M phase at 1.5 uM after 12 hrs by flow cytometry (reference value: 5.4%). The following applies: NCI-H1299. It counts as functional, cell-based.
Series [11] relates to NCI-H1299. The series is described as follows: Induction of apoptosis in human H1299 cells assessed as caspase 3 protein expression after 24 hrs by Western blot analysis. It counts as functional, cell-based.
Series [12] can be described thus: Cell cycle arrest in human H1299 cells assessed as reduction in G1 phase at 1.5 uM after 12 to 24 hrs by flow cytometry. It counts as functional, cell-based. The conditions noted are these: NCI-H1299.
Series [13] is described as follows: Cell cycle arrest in human H1299 cells assessed as accumulation at Sub-G1 phase at 1.5 uM after 12 hrs by flow cytometry (reference value: 5.3%). It counts as functional, cell-based. The conditions noted are these: NCI-H1299.
A short description of series [14]: Cell cycle arrest in human H1299 cells assessed as accumulated at G2/M phase at 1.5 uM by flow cytometry. It counts as functional, cell-based. The following applies: NCI-H1299, TDE = time-dependent effect.

The source made the active and inactive calls. No cut-off for these calls is given here. Bounds are passed on as bounds.

In the case of `CC[C@@]1(O)C(=O)OCc2c1cc1n(c2=O)Cc2cc3c(CN(C)C)c(O)ccc3nc2-1` [TOPOTECAN], the IC50 in series [1] was above 10 µM; in series [2], 4.18 µM; in series [3], above 10 µM; with MCF7 it was 3.46 µM.
On to `COc1ccc(C(=O)NNC(=O)/C=C/c2cc(OC)c(O)c(OC)c2)cc1`, for which the IC50 in series [1] was 9.42 µM; in series [2], 7.45 µM; in series [3], 9.45 µM; in the series with MCF7 it was 7.17 µM.
On the same counts, the results for `O=C(/C=C/c1ccc(O)cc1)NNC(=O)c1ccc(O)cc1` are 8.62 µM, 5.47 µM, above 10 µM and 8.8 µM.
In the same order, the values of `COc1cc(/C=C/C(=O)NNC(=O)c2ccccc2)ccc1O` are 9.55 µM, 6.16 µM, 9.17 µM and 5.22 µM.
On the same counts, the results for `O=C(/C=C/c1ccc(O)c(O)c1)NNC(=O)c1ccc(O)cc1` are above 10 µM, 4.48 µM, 8.68 µM and 6.05 µM.
For `COc1ccc(C(=O)NNC(=O)/C=C/c2ccc(O)cc2)cc1`, the IC50 in series [1] was above 10 µM; in [2], 6.64 µM; in series [3], 8.44 µM; with MCF7 it was 6.02 µM.
In the same order, the values of `COc1ccc(C(=O)NNC(=O)/C=C/c2ccc(O)c(OC)c2)cc1` are above 10 µM, 5.42 µM, above 10 µM and 5.62 µM.
In the case of `COc1cc(/C=C/C(=O)NNC(=O)c2ccccc2)cc(OC)c1O`, the half-maximal inhibitory concentration (IC50) (in series [1]; in [2]; in series [3]; with MCF7) was above 10 µM each time.
In the case of `COc1ccc(C(=O)NNC(=O)/C=C/c2ccc(O)c(O)c2)cc1`, the IC50 was found to be 9.39 µM in series [1], 5.42 µM in series [2], 9.57 µM in series [3] and 4.86 µM in the series with MCF7.
`COc1cc(/C=C/C(=O)NNC(=O)c2ccc(O)cc2)ccc1O`: the IC50 in series [1] was above 10 µM; in series [2] it was 1.5 µM; in [3], above 10 µM; in the series with MCF7 it was 4.36 µM. Also, the result (with NCI-H1299 [4]; in series [12]) was Active. Further, the Activity in series [5] is 5.2%; in [6], 4.9%; in [7], 46.2%; in series [8] it was “Non-toxic”; in series [9] it was 12.3%; in series [10], 31.7%. Moreover, the Activity result is “Dose-dependent effect” with NCI-H1299 [11], 8.9% in series [13] and “tde” in series [14].
As for `O=C(/C=C/c1ccc(O)c(O)c1)NNC(=O)c1ccccc1`, the IC50 was 8.85 µM in series [1], 6.77 µM in series [2], 8.12 µM in series [3] and 4.75 µM in the series on MCF7.
In the same order, the values of `COc1cc(/C=C/C(=O)NNC(=O)c2ccc(O)cc2)cc(OC)c1O` are above 10 µM, 8.71 µM, above 10 µM and 9.32 µM.
On the same counts, the results for `O=C(/C=C/c1ccc(O)cc1)NNC(=O)c1ccccc1` are 9.75 µM, 7.36 µM, 9.32 µM and 7.39 µM.

(Values after ChEMBL document CHEMBL3351325, “Synthesis and biological evaluation of hydroxycinnamic acid hydrazide derivatives as inducer of caspase-3” (Eur J Med Chem, 2014).)
